The values below are quoted from earlier work in US20110213558A1, “METHOD FOR PREDICTING ACTIVATION ENERGY USING AN ATOMIC FINGERPRINT DESCRIPTOR OR AN ATOMIC DESCRIPTOR” (Bioinformatics & Molecular Design Research Center, priority 2008, published 2011).

Molecules are shown by their SMILES. Read-outs that look alike come from different tables or passages of the source.

Data set [1] has as its system cytochrome P450. The following applies: in vitro.
In data set [2] the test system is cytochrome P450. Conditions: in vitro. The source holds these as a separate data set.

As to `Clc1ccccc1` [Chlorobenzene], the Experimental metabolic rate in data set [1] (atom # 2) is 17-19; in data set [1] (atom # 3) it was 5-9; in data set [1] (atom # 4), 71-79.
Turning to `CCc1ccccc1` [Ethylbenzene], the Experimental metabolic rate in data set [2] (atom # 1) is recorded as 0.2; in data set [2] (atom # 2), 99.8.
For `COc1ccccc1` [Methoxybenzene], the Experimental metabolic rate in data set [1] (atom # 2) is listed as 15-24; in data set [1] (atom # 3), 1-3; in data set [1] (atom # 4), 62-75.
As to `CCCCCC` [Hexane], the Experimental metabolic rate is 4.5 in data set [2] (atom # 1), 49 in data set [2] (atom # 2) and 46.5 in data set [2] (atom # 3).
Consider `CCCCCCCC` [Octane], for which the Experimental metabolic rate in data set [2] (atom # 1) is 2.5; in data set [2] (atom # 2), 97.5.
As for `Cc1ccc(CCl)cc1` [1-chloromethyl-4-methyl-benzene], the Experimental metabolic rate is on record as 16.0 in data set [2] (atom # 1) and 84.0 in data set [2] (atom # 2).
